Measurements as given in ChEMBL document CHEMBL4507304, “Data for DCP probe TP-021” (2021).

Columns and labels:
[1] = target: Glycogen synthase kinase-3 beta (Homo sapiens) (UniProt P49841); conditions: Compound concentration 1000.0 nM
[2] = target: Phosphorylase b kinase gamma catalytic chain, skeletal muscle/heart isoform (Homo sapiens) (UniProt Q16816); conditions: Compound concentration 1000.0 nM
[3] = target: Delta-type opioid receptor (Homo sapiens) (UniProt P41143); conditions: Compound concentration 10.0 uM
[4] = target: Serine/threonine-protein kinase 33 (Homo sapiens) (UniProt Q9BYT3); conditions: Compound concentration 1000.0 nM
[5] = target: Protein kinase C epsilon type (Homo sapiens) (UniProt Q02156); conditions: Compound concentration 1000.0 nM
[6] = target: Mitogen-activated protein kinase kinase kinase 1 (Homo sapiens) (UniProt Q13233); conditions: Compound concentration 1000.0 nM
Mitogen-activated protein kinase kinase kinase 1 (Homo sapiens), sequence (Q13233 whole entry): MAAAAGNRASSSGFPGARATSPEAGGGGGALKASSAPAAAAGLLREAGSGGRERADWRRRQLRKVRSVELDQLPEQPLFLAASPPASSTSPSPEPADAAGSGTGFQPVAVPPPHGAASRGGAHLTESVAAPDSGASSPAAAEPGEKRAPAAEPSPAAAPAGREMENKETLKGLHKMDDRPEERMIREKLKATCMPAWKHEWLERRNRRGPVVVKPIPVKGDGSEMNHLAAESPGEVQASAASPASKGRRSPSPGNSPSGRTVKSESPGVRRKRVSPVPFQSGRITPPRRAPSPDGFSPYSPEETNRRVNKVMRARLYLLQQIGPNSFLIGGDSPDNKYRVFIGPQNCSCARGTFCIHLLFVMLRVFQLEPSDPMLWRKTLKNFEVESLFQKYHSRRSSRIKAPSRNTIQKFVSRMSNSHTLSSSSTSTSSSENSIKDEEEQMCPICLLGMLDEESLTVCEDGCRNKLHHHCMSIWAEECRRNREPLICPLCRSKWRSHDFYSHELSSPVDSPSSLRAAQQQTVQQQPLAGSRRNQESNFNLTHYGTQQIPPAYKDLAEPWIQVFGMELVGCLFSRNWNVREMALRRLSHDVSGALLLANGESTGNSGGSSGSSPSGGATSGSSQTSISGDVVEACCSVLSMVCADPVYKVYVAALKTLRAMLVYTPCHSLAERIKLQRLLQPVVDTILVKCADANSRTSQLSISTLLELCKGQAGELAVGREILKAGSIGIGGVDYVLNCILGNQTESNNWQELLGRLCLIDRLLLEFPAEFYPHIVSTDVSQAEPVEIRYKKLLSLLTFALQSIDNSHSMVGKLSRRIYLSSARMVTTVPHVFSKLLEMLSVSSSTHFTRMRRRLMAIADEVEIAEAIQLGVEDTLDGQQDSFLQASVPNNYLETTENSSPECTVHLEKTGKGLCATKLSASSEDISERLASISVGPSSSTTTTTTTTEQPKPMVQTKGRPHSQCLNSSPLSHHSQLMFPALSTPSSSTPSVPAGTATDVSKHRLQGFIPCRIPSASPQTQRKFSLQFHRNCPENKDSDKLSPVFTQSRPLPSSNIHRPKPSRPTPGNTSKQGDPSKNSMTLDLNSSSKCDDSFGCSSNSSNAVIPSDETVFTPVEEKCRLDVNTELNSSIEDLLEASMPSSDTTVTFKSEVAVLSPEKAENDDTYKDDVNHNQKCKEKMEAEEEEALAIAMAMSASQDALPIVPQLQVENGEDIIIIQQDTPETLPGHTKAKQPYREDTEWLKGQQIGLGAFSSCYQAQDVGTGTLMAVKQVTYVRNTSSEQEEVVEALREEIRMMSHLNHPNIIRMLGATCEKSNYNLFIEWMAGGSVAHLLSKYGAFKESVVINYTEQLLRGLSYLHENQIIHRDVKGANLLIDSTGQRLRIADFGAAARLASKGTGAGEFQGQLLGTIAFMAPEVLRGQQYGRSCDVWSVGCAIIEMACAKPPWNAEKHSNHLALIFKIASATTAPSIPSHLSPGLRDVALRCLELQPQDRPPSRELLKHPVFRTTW

[7] = target: SRSF protein kinase 2 (Homo sapiens) (UniProt P78362); conditions: Compound concentration 1000.0 nM
SRSF protein kinase 2 (Homo sapiens), sequence (P78362 whole entry, looked up): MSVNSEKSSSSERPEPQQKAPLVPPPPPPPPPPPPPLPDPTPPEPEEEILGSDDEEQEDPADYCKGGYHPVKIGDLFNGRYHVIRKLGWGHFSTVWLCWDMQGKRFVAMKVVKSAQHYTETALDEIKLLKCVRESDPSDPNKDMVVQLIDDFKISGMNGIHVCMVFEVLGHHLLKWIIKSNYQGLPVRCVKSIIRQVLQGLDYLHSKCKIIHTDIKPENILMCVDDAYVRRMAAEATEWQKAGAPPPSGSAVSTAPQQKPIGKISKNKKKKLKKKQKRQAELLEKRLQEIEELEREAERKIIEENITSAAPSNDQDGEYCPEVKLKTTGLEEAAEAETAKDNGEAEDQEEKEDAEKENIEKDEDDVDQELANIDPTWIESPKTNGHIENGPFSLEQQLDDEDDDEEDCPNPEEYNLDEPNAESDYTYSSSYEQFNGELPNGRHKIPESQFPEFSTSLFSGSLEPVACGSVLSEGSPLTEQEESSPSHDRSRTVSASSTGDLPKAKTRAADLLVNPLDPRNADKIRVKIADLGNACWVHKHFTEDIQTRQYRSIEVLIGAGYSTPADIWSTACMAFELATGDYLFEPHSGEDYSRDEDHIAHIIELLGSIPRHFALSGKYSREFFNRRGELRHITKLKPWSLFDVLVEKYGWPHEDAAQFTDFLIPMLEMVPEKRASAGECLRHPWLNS

[8] = target: Serine/threonine-protein kinase NLK (Homo sapiens) (UniProt Q9UBE8); conditions: Compound concentration 1000.0 nM
Serine/threonine-protein kinase NLK (Homo sapiens), sequence (Q9UBE8 whole entry): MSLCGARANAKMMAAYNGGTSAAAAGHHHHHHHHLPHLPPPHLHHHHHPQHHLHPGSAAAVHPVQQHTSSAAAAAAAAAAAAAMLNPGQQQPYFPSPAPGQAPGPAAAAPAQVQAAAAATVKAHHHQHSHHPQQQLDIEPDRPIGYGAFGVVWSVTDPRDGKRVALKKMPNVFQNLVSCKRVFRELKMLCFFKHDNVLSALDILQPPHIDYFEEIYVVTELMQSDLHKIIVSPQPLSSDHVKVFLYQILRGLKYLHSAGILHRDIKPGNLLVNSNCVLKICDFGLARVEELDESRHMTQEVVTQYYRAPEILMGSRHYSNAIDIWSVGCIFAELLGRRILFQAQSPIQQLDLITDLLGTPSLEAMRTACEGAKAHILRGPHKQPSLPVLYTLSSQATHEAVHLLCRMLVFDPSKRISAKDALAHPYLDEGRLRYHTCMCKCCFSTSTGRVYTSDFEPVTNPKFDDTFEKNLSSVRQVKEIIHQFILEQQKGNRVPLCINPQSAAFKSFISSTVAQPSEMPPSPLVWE

[9] = target: Death-associated protein kinase 1 (Homo sapiens) (UniProt P53355); conditions: Compound concentration 1000.0 nM
[10] = target: Ephrin type-B receptor 2 (Homo sapiens) (UniProt P29323); conditions: Compound concentration 1000.0 nM
[11] = system: Proto-oncogene tyrosine-protein kinase receptor Ret (Homo sapiens), P07949 [V804M]; conditions: Compound concentration 1000.0 nM
[12] = target: Mitotic checkpoint serine/threonine-protein kinase BUB1 (Homo sapiens) (UniProt O43683); conditions: Compound concentration 1000.0 nM
[13] = target: Tyrosine-protein kinase Yes (Homo sapiens) (UniProt P07947); conditions: Compound concentration 1000.0 nM
[14] = target: Sodium-dependent noradrenaline transporter (Homo sapiens) (UniProt P23975); conditions: Compound concentration 10.0 uM
[15] = system: Mast/stem cell growth factor receptor Kit (Homo sapiens), P10721 [V559D,V654A]; conditions: Compound concentration 1000.0 nM
Mast/stem cell growth factor receptor Kit (Homo sapiens), P10721 [V559D,V654A], sequence (P10721 whole entry V559D/V654A): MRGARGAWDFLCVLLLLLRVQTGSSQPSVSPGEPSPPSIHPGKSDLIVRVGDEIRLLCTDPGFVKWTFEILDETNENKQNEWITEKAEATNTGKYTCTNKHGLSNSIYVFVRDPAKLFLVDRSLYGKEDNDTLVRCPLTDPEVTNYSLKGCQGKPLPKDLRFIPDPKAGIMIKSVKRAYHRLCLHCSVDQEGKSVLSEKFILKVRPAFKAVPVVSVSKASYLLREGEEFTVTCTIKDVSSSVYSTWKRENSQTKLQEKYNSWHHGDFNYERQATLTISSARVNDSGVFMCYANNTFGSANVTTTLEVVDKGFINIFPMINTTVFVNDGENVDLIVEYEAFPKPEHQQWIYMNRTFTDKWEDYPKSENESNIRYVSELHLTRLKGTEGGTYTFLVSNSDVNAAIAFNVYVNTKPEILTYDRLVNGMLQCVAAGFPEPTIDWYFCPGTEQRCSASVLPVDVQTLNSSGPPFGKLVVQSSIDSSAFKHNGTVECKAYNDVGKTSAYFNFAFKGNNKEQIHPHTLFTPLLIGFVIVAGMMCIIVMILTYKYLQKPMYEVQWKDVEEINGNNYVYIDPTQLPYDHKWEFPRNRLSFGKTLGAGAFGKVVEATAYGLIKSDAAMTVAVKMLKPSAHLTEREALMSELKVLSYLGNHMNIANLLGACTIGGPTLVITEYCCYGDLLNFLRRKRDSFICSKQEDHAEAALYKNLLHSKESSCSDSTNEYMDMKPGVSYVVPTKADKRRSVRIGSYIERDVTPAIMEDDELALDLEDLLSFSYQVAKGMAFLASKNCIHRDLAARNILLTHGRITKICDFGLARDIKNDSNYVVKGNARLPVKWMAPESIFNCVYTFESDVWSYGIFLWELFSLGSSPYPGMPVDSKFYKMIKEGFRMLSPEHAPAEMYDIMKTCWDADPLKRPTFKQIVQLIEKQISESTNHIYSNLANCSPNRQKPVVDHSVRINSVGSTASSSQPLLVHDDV

[16] = target: Cyclin-dependent kinase-like 3 (Homo sapiens) (UniProt Q8IVW4); conditions: Compound concentration 1000.0 nM
[17] = system: Proto-oncogene tyrosine-protein kinase receptor Ret (Homo sapiens), P07949 [V804L]; conditions: Compound concentration 1000.0 nM
[18] = target: Sigma non-opioid intracellular receptor 1 (Homo sapiens) (UniProt Q99720); conditions: Compound concentration 10.0 uM
[19] = target: Phosphorylase b kinase regulatory subunit alpha, liver isoform (Homo sapiens) (UniProt P46019); conditions: Compound concentration 1000.0 nM
[20] = target: GABA-A receptor; anion channel (Rattus norvegicus) (UniProt O09028+P15431+P18506+P18508+P19969+P20236+P23574+P23576+P28471+P28473+P30191+P62813+P63079+P63138+Q91ZM7+Q9ES14); conditions: Compound concentration 10.0 uM
[21] = target: Protein kinase C theta type (Homo sapiens) (UniProt Q04759); conditions: Compound concentration 1000.0 nM
Protein kinase C theta type (Homo sapiens), sequence (Q04759 whole entry, looked up): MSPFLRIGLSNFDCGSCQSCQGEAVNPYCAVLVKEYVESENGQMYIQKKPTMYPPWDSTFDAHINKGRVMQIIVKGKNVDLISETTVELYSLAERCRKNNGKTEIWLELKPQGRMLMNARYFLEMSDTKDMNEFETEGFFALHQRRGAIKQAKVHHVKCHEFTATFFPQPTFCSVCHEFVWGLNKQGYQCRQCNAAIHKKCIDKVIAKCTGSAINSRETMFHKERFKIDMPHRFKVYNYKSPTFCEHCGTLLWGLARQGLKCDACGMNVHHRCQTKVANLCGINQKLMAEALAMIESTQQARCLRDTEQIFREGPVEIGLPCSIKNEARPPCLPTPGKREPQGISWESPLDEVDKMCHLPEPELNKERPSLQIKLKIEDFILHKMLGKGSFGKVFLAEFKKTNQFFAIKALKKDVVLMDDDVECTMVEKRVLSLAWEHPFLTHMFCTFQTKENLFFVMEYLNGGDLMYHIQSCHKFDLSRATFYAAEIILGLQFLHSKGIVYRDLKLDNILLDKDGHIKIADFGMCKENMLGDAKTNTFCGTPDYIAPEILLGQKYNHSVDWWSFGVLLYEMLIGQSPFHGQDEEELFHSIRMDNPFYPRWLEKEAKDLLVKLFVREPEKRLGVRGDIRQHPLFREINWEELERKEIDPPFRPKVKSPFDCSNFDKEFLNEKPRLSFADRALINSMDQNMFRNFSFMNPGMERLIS

[22] = system: Tyrosine-protein kinase ABL1 (Homo sapiens), P00519 [Y253F]; conditions: Compound concentration 1000.0 nM
[23] = target: Vascular endothelial growth factor receptor 2 (Homo sapiens) (UniProt P35968); conditions: Compound concentration 1000.0 nM
[24] = target: Protein-tyrosine kinase 6 (Homo sapiens) (UniProt Q13882); conditions: Compound concentration 1000.0 nM
[25] = target: Serine/threonine-protein kinase Chk1 (Homo sapiens) (UniProt O14757); conditions: Compound concentration 1000.0 nM
[26] = target: Serine/threonine-protein kinase ULK1 (Homo sapiens) (UniProt O75385); conditions: Compound concentration 1000.0 nM
[27] = target: Serine/threonine-protein kinase Sgk3 (Homo sapiens) (UniProt Q96BR1); conditions: Compound concentration 1000.0 nM
[28] = target: 5-hydroxytryptamine receptor 1D (Homo sapiens) (UniProt P28221); conditions: Compound concentration 10.0 uM
[29] = system: Fibroblast growth factor receptor 3 (Homo sapiens), P22607 [G697C]; conditions: Compound concentration 1000.0 nM
[30] = target: Serine/threonine-protein kinase 26 (Homo sapiens) (UniProt Q9P289); conditions: Compound concentration 1000.0 nM
[31] = system: Tyrosine-protein kinase ABL1 (Homo sapiens), P00519 [T315I]; conditions: Compound concentration 1000.0 nM
[32] = target: Tyrosine-protein kinase Blk (Homo sapiens) (UniProt P51451); conditions: Compound concentration 1000.0 nM
[33] = system: Epidermal growth factor receptor (Homo sapiens), P00533 [L861Q]; conditions: Compound concentration 1000.0 nM
[34] = target: MAP kinase-activated protein kinase 5 (Homo sapiens) (UniProt Q8IW41); conditions: Compound concentration 1000.0 nM
[35] = target: G protein-coupled receptor kinase 4 (Homo sapiens) (UniProt P32298); conditions: Compound concentration 1000.0 nM
G protein-coupled receptor kinase 4 (Homo sapiens), sequence (P32298 whole entry, looked up): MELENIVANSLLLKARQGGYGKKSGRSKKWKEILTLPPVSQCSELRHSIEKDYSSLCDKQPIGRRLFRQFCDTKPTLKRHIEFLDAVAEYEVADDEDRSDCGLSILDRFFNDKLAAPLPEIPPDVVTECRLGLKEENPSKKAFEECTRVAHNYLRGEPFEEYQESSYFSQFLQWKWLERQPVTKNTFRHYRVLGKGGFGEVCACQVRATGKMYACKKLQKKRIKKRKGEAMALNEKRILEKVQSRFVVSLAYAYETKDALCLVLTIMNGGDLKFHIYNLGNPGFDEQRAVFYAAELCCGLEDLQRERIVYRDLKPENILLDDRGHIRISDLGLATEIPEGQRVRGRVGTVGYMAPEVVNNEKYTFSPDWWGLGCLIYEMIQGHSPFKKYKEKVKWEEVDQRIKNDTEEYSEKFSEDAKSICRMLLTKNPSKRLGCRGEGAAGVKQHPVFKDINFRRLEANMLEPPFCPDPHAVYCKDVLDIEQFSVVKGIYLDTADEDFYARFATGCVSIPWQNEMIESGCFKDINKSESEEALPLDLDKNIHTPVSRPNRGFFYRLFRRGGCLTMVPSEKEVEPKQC

[36] = target: Serine/threonine-protein kinase VRK2 (Homo sapiens) (UniProt Q86Y07); conditions: Compound concentration 1000.0 nM
[37] = target: Serine/threonine-protein kinase Nek7 (Homo sapiens) (UniProt Q8TDX7); conditions: Compound concentration 1000.0 nM
[38] = target: Tyrosine-protein kinase Fyn (Homo sapiens) (UniProt P06241); conditions: Compound concentration 1000.0 nM
[39] = target: Vascular endothelial growth factor receptor 1 (Homo sapiens) (UniProt P17948); conditions: Compound concentration 1000.0 nM
[40] = target: Interleukin-1 receptor-associated kinase 3 (Homo sapiens) (UniProt Q9Y616); conditions: Compound concentration 1000.0 nM
[41] = target: Cyclin-dependent kinase 8 (Homo sapiens) (UniProt P49336); conditions: Compound concentration 1000.0 nM
[42] = target: Ephrin type-B receptor 3 (Homo sapiens) (UniProt P54753); conditions: Compound concentration 1000.0 nM
[43] = target: Tyrosine-protein kinase JAK1 (Homo sapiens) (UniProt P23458); conditions: Compound concentration 1000.0 nM
[44] = target: Tyrosine-protein kinase JAK3 (Homo sapiens) (UniProt P52333); conditions: Compound concentration 1000.0 nM

N#Cc1ccc(Nc2ccc3[nH]c(=O)[nH]c3c2)c(Cl)c1
inactive: residual activity [1] 96% | residual activity [2] 100% | inhibition [3] -0.28% | residual activity [4] 93% | residual activity [5] 100% | residual activity [6] 79% | residual activity [7] 100% | residual activity [8] 100% | residual activity [9] 100% | residual activity [10] 70% | residual activity [11] 93% | residual activity [12] 100% | residual activity [13] 100% | inhibition [14] -2.68% | residual activity [15] 96% | residual activity [16] 80% | residual activity [17] 100% | inhibition [18] 14% | residual activity [19] 100% | inhibition [20] 15.5% | residual activity [21] 90% | residual activity [22] 87% | residual activity [23] 99% | residual activity [24] 100% | residual activity [25] 98% | residual activity [26] 81% | residual activity [27] 100% | inhibition [28] 3.68% | residual activity [29] 93% | residual activity [30] 96% | residual activity [31] 93% | residual activity [32] 97% | residual activity [33] 100% | residual activity [34] 92% | residual activity [35] 100% | residual activity [36] 100% | residual activity [37] 100% | residual activity [38] 89% | residual activity [39] 100% | residual activity [40] 94% | residual activity [41] 100% | residual activity [42] 100% | residual activity [43] 97% | residual activity [44] 100%

O=C1CCc2cc(Nc3cc(OC4CCOCC4)c([N+](=O)[O-])cc3Cl)ccc2N1
inactive: residual activity [1] 96% | residual activity [2] 100% | inhibition [3] 3.32% | residual activity [4] 77% | residual activity [5] 93% | residual activity [6] 65% | residual activity [7] 100% | residual activity [8] 100% | residual activity [9] 90% | residual activity [10] 96% | residual activity [11] 100% | residual activity [12] 89% | residual activity [13] 96% | inhibition [14] 0.76% | residual activity [15] 92% | residual activity [16] 79% | residual activity [17] 91% | inhibition [18] 11.7% | residual activity [19] 100% | inhibition [20] 12.7% | residual activity [21] 92% | residual activity [22] 79% | residual activity [23] 100% | residual activity [24] 100% | residual activity [25] 95% | residual activity [26] 87% | residual activity [27] 100% | inhibition [28] 18.6% | residual activity [29] 79% | residual activity [30] 87% | residual activity [31] 80% | residual activity [32] 94% | residual activity [33] 100% | residual activity [34] 78% | residual activity [35] 100% | residual activity [36] 100% | residual activity [37] 87% | residual activity [38] 64% | residual activity [39] 100% | residual activity [40] 98% | residual activity [41] 100% | residual activity [42] 88% | residual activity [43] 100% | residual activity [44] 96%
